Laboratory results: US11957766B2, “HNQO1-activatable fluorescent probe for imaging cancer cells in-vitro and in-vivo” (Texas Tech University System, priority 2019, dated 2024)

Key:
[1] = tested on: A549 and MDA-MB-231 tumors; assay: In vivo imaging of NQO1-positive (A549) and -negative (MDA-MB-231) xenografts in the same animal with NIR-ASM; parameters: species or system nude mice; settings: intravenous, tumors of 200 mm^3
Protocol: Additionally, to validate the NQO1-specific activation of NIR-ASM to generate fluorescence, the inventors generated NQO1-positive (A549) and -negative (MDA-MB-231) xenografts in the same animal by injecting the corresponding tumor cells on the left and right flanks of the nude mice respectively. When tumors reached a volume of 200 mm^3, NIR-ASM was administered through intravenous injection and the animals were imaged using the In Vivo imager.
In vivo bioimaging. The animal study protocol was approved by the Institutional Animal Use and Care Committee (IACUC), Texas Tech University Health Sciences Center, Protocol number: 07050. All experimental protocols used in this study were approved by IACUC, Texas Tech University Health Sciences Center and all the methods were carried out according to the committee guidelines. Female athymic nude mice (nu/nu, 4-6 weeks) were purchased from Charles River Laboratories (Wilmington, MA, USA). BALB/c57 mice were provided by Dr. Constantinos Mikelis of our University. To establish A549 or MDA-MB-231 xenografts, a total of 5×10^6 cells (in 0.1 ml of serum-free media and Matrigel (1:1)) were subcutaneously injected into the flanks of the mice. […] All animals were monitored for activity, physical condition, body weight, and tumor growth. […] Fluorescence represented in log values of radiance is photons per second per square centimeter per steradian.

NQO1 [2] = biological target: T1, NQO1 (Homo sapiens, UniProt P15559); assay: Kinetics of NQO1 towards NIR-ASM (Michaelis-Menten); type: biochemical; parameters: purchased Sigma-Aldrich D1515; settings: NQO1 2 μg/mL, NADH 100 μM
T1 sequence (P15559 whole entry): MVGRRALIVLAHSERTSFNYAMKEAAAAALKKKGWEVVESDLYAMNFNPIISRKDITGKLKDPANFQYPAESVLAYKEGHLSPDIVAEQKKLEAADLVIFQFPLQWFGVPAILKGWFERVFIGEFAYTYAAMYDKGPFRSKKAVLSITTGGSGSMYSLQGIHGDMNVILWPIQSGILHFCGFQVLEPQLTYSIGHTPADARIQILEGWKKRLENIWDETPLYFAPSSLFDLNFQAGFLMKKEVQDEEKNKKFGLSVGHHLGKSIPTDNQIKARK
Protocol: Next, the kinetics of fluorescent product formation was assessed. […] From this experiment, the initial rate of ASM formation, V (μmol min^−1 μg NQO1^−1), was calculated and then plotted as a function of NIR-ASM concentration (FIG. 10C).
Kinetic studies. Kinetic studies were performed using a microplate reader under philological conditions (PBS with 0.1% of BSA at 37° C.). The assay buffer contained 2 μg/mL of NQO1, 100 μM NADH and different concentrations of NIR-ASM (0-100 μM) in a total volume of 100 μL. Time-dependent fluorescence measurements were carried out to monitor the release of ASM by NQO1 activation of NIR-ASM (λex/em 460/646), and the data were collected every minute for 90 minutes. This assay was repeated two times in triplicate and the fluorescence readings were optimized to a standard curve of ASM of known concentration and calculated the velocity in terms of μmol^−1 min^−1 μg NQO1. A plot of the velocities and NIR-ASM concentration was used to obtaining the apparent kinetic parameters Km and Vmax from nonlinear regression analysis and Michaelis-Menton constant using the GraphPad Prism.

NQO1 [3] = biological target: T1, NQO1; assay: Selectivity of NQ-DCP towards hNQO1 over other biomolecules/enzymes; type: biochemical; settings: 10 μM probe, 30 min; GSH, ALDH1A1, GGT, GPx, APE1, CBS, CTSL, GST-pi, NTR, NADH
Protocol: Selectivity of NQ-DCP Towards hNQO1. The specificity of NQ-DCP probe towards hNQO1 was studied by determining its reactivity towards various biomolecules such as the glutathione (GSH, 1 mM), aldehyde dehydrogenase 1 (ALDH1A1, 2.5 μg/mL), gamma-glutamyl transferase (GGT, 10 U), glutathione Peroxidase (GPx, 10 U), apurinic/apyrimidinic endonuclease (APE1, 10 U), cystathionine-β-synthase (CBS, 2 μg/mL), cathepsin L (CTSL, 2 μg/mL), glutathione S-transferase (GST-pi, 2 μg/mL), nitroreductase (NTR, 2 μg/mL) and NADH (100 μM) alone or the combination of and NQO1 (2.5 μg/mL). […] To gain more insight into the specificity of the probe towards hNQO1, the enzyme was pre-treated with ES936 (0-100 nM), a well-known hNQO1 inhibitor [39] and then incubated with NQ-DCP.
Selectivity Evaluation. To study the interference, NQ-DCP was incubated with various biologically relevant analytes such as thiols and other enzymes for 30 min with or without the addition of 100 μM NADH. Fluorescence spectra were analyzed to determine NQ-DCP specificity against hNQO1.

[4] = tested on: normal (astrocytes) cells; assay: Fluorescence microscopy of NQ-DCP in hNQO1 negative normal cells; type: cell-based; settings: 10 μM, 60 min
Protocol: Visualization of Cancer Cells by Fluorescence Imaging of hNQO1. […] The cytotoxicity of NQ-DCP was initially evaluated in cultured brain tumor (DAOY, T98G, and U87MG) and normal (astrocytes) cells to assess its biocompatibility using the resazurin reduction assay. […] Cells were incubated with NQ-DCP (10 μM) for 60 min, washed with PBS and were imaged under a fluorescence microscope.
Cell Culture, Fluorescence Imaging, and Flow Cytometry Analysis. Brain tumor cells and astrocytes were grown in Dulbecco's modified Eagle's (DMEM) medium containing 10% Fetal Bovine Serum and 1% penicillin/streptomycin in a humidified atmosphere of 5% CO2 at 37° C. For fluorescence imaging, initially, cells were seeded into 6-well plate and cultured overnight in respective media at 37° C. Media was replaced with fresh medium containing 10 μM NQ-DCP and incubated at 37° C. for 60 min and then the medium was replaced with PBS and live cells were imaged using a fluorescence microscope. For inhibitor study, cells were pretreated with NQO1 inhibitor ES936 (100 nM) for 6 h before adding the NQ-DCP. For determining endogenous hNQO1 activity in cancer cells using flow cytometry, about 10×10^4 cells were incubated with 10 μM of NQ-DCP for 60 min and were analyzed using flow cytometry.

Row | Compound | fluorescence signal, NQO1-positive A549 tumor [1] | fluorescence signal, NQO1 negative MDAMB-231 tumors [1] | maximum velocity (Vmax) (NQO1 [2]) | selectivity for hNQO1 over the other enzymes/substrates tested (NQO1 [3]) | fluorescence signal in normal cells [4]
1 | CC1=C(C)C(=O)C(C(C)(C)CC(=O)Nc2ccc(/C=C/C3=CC(=C(C#N)C#N)CC(C)(C)C3)cc2)=C(C)C1=O [NIR-ASM, (E)-N-(4-(2-(3-(dicyanomethylene)-5,5-dimethylcyclohex-1-en-1-yl)vinyl)phenyl)-3-methyl-3-(2,4,5-trimethyl-3,6-dioxocyclohexa-1,4-dien-1-yl)butanamide] | observed only from the A549 tumor | no signal was discernible | 0.00419±0.00003 μmol min^−1 mg NQO1^−1 | – | –
2 | CC1=C(C)C(=O)C(C(C)(C)CC(=O)Oc2ccc(/C=C/C3=CC(=C(C#N)C#N)CC(C)(C)C3)cc2)=C(C)C1=O [NQ-DCP] | – | – | – | high selectivity | no signals were observed
